Data as given in patent publication US12122811B2, “BDNF mimetic peptide amphiphiles” (Northwestern University, priority 2018, dated 2024).
Positions of bridges follow the written chain, without caps; N, C: chain ends. Non-standard residues stand in square brackets, D forms with d. Residues, ends and D or L forms follow the SMILES beside them. Chains are numbered I, II in the order given. *: point of attachment. PEG6 = NCCOCCOCCOCCOCCOCCOCCC(=O)O; Palmitoyl = CCCCCCCCCCCCCCCC(=O)*

Columns and labels:
PI3K pathway (pAKT) = assay: PI3K pathway activation, western blot of phosphorylated AKT (pAKT); type: cell-based, mouse; conditions: 6 h of treatment, vs control conditions
Method: (§1) For western blot, cells were cultured in 6 well plates at a density of approximately 900,000 cells/well for 14 DIV before being treated. Treatments were added for 2, 4, 6, 8, 12 or 24 h in vitro before protein was harvested. For TrkB inhibitor studies, cells were cultured for 14 DIV and then treated with a TrkB specific inhibitor, K-252a (Sigma Aldrich), for 1 hour prior to being treated with the different conditions mentioned above. Protein was extracted after six hours of treatment.
(§2) Western Blot. Protein was extracted from primary neuronal cultures with Halt Protease and Phosphatase Inhibitor Cocktail (Thermo Scientific) and a BCA assay (Thermo Scientific) was performed to determine protein content of each sample. Cell protein was loaded into and separated using a 4-20% SDS-PAGE gel (Bio-Rad). It was then electrotransferred from the gel to a nitrocellulose membrane (Bio-Rad). The membranes were blocked with 5% milk solution (Bio-Rad) for 30 minutes followed by an overnight incubation with primary antibodies at 4° C. […] Protein signals were detected using Radiance Bioluminescent ECL substrate (Azure Biosystems). Densitometry analysis, standardized to total receptor content or Actin as a control for protein loading, was performed using ImageJ software.^3 For quantification, triplicate samples were analyzed and at least two different experiments were conducted.

TrkB receptor = biological target: T1, TrkB receptor (Mus musculus, UniProt P15209); assay: TrkB receptor phosphorylation (p-TrkB) by western blot in primary cortical neurons; type: cell-based; conditions: for TrkB phosphorylation after pre-treatment with inhibitor K252a: K252a 2 h prior to treatment, 6 h post-treatment
T1 construct: Protein was extracted from primary neuronal cultures; endogenous in cells; host or cells: primary cortical neurons from E16 CD1 mouse embryos, 14 DIV
Method: 2.3.2. Dissection of Embryonic Primary Cortical Neurons. Neurons were obtained from embryonic brains as described elsewhere.^2 Briefly, time-pregnant mouse was sacrificed by cervical dislocation and the embryos were extracted at embryonic day 16 (E16). Cerebral cortices were dissected from the mouse embryos and meninges were removed in a solution of Hank's Balanced Salt Solution (HBSS) with 1% pen-strep (Invitrogen) and then digested with trypsin (Invitrogen) and DNAse (Sigma-Aldrich) for 10 min at 37° C. The tissue was mechanically dissociated, centrifuged at 1000 g for 5 min, and resuspended in CO2-equilibrated Neurobasal (NB) neuronal culture medium (Invitrogen) supplemented with 10% normal horse serum (NHS) (Invitrogen), 1% pen-strep (Invitrogen), 0.5 mM L-glutamine (Invitrogen), and 5.8 μL NaHCO3/mL (Sigma-Aldrich). The cell suspension was pre-plated at 37° C. for 30 min. Afterwards, the supernatant was collected, passed through a cell strainer with 100 μm pore size and centrifuged at 1000 g for 5 min. The pellet was resuspended in NB neuronal culture medium (1% NHS, 1% pen-strep, 0.5 mM L-glutamine, 22 μM glutamic acid (Sigma-Aldrich), 2% B27 (Gibco), and 5.8 μL NaHCO3/mL (Sigma-Aldrich), and plated at different densities (depending on the type of experiment, see below) directly on tissue culture plates coated with poly-D-lysine (Sigma-Aldrich). After 24 hs, the medium was replaced with serum-free neuronal culture medium (1% pen-strep, 0.5 mM L-glutamine, 2% B27, 5.8 μL NaHCO3/mL). Under these conditions, we obtained a neuron-enriched culture with a composition of approximately 10% glial cells.
BDNF PA Treatments and Cell Culture Procedures. Treatments were prepared by dissolving PA (including E2 Filler, E2 Filler+E4PEG, E2 Filler+Linear BDNF, E2 Filler+BDNF PAs) and BDNF peptide at different concentrations (0.5, 1.0 or 5.0 μM), in media without serum or B27 supplement or starvation media. Unless otherwise noted, BDNF PA, Linear BDNF PA, or E4PEG PAs were co-assembled at 10 mol % with E2 filler PA (total concentration of PA was 5.0, 10.0, or 50.0 μM respectively). For the co-assembly ratio study, BDNF PA was co-assembled at 10, 20, 50, 70, 90, and 100 mol %. Human/Murine/Rat BDNF protein (Peprotech) was resuspended at different concentrations (0.25, 0.5 and 1 nM) in starvation media.
For western blot, cells were cultured in 6 well plates at a density of approximately 900,000 cells/well for 14 DIV before being treated. Treatments were added for 2, 4, 6, 8, 12 or 24 h in vitro before protein was harvested. […] Protein was extracted after six hours of treatment.
Western Blot. Protein was extracted from primary neuronal cultures with Halt Protease and Phosphatase Inhibitor Cocktail (Thermo Scientific) and a BCA assay (Thermo Scientific) was performed to determine protein content of each sample. Cell protein was loaded into and separated using a 4-20% SDS-PAGE gel (Bio-Rad). It was then electrotransferred from the gel to a nitrocellulose membrane (Bio-Rad). The membranes were blocked with 5% milk solution (Bio-Rad) for 30 minutes followed by an overnight incubation with primary antibodies at 4° C. The following primary antibodies were used: rabbit anti-pTrkB (1:1000, Cell Signaling), rabbit anti-TrkB (1:1000, Cell Signaling), rabbit anti-Actin (1:2000, Sigma Aldrich), mouse anti-Actin (1:2000, Sigma Aldrich), rabbit anti-pPLCγ (1:1000, Cell Signaling), rabbit anti-PLCγ (1:1000, Cell Signaling), rabbit anti-pAKT (1:2000, Cell Signaling), mouse anti-AKT (1:2000, Cell Signaling), rabbit anti-pERK1+ERK2 (1:1000, Abcam), rabbit anti-ERK 1/2 (1:1000, Cell Signaling), rabbit anti-PSD95 (1:1000, Abcam), rabbit anti-MAP-2 (1:2000, BioLegend), and mouse anti-Tuj-1 (1:1000, BioLegend). Membranes were then incubated with their corresponding secondary HRP-conjugated antibodies (1:1000; ThermoFisher). Protein signals were detected using Radiance Bioluminescent ECL substrate (Azure Biosystems). […]

MAPK pathway (pErk 1/2) = assay: MAPK pathway activation, western blot of phosphorylated Erk (pErk 1/2); type: cell-based, mouse; conditions: 6 h of treatment, vs control conditions
Method: as §1, §2

T1 sequence (P15209 32-821): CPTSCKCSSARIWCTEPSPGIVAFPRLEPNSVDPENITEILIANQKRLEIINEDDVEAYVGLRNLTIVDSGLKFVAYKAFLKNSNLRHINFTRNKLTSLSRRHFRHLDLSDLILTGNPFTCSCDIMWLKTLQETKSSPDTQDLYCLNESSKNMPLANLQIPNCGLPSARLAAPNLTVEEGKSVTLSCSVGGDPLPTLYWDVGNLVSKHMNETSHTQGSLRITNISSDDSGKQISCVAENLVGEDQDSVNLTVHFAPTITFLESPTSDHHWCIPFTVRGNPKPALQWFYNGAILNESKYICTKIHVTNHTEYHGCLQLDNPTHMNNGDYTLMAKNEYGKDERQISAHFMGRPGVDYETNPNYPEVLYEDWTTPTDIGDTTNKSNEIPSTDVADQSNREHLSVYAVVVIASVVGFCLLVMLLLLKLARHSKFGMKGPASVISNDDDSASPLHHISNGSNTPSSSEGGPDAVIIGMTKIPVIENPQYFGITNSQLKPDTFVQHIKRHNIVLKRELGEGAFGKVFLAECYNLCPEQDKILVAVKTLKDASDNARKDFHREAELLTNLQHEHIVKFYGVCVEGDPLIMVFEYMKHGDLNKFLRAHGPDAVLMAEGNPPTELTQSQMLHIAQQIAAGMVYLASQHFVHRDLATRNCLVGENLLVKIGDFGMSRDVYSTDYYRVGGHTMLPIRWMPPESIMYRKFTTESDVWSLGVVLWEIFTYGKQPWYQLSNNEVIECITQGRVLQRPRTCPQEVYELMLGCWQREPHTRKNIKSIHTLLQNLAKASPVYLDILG

Molecule | activation of the PI3K pathway (pAKT) (PI3K pathway (pAKT)) | dose dependence of TrkB activation (TrkB receptor; 0.5, 1.0 and 5.0 μM, 6 h) | activation of TrkB receptor, co-assembly ratio study (TrkB receptor; 10-50 mol % BDNF PA co-assembled with E2 Filler PA, 6 h) | activation of TrkB receptor, co-assembly ratio study (TrkB receptor; 90-100 mol % BDNF PA (do not form fibers), 6 h) | TrkB phosphorylation after pre-treatment with inhibitor K252a (TrkB receptor) | activation of the MAPK pathway (pErk 1/2) (MAPK pathway (pErk 1/2)) | persistence of p-TrkB (TrkB receptor; BDNF protein 0.25 nM, time course to 24 h)
CCCCCCCCCCCCCCCC(=O)N[C@H](C(=O)N[C@H](C(=O)N[C@@H](C)C(=O)N[C@@H](C)C(=O)N[C@@H](CCC(=O)O)C(=O)N[C@@H](CCC(=O)O)C(=O)N[C@@H](CCC(=O)O)C(=O)N[C@@H](CCC(=O)O)C(=O)NCCOCCOCCOCCOCCOCCOCCC(=O)NCCCC[C@@H]1NC(=O)[C@H]2CCCN2C(=O)[C@H](CCCNC(=N)N)NC(=O)[C@H](CCCCN)NC(=O)[C@H](CCCCN)NC1=O)C(C)C)C(C)C [BDNF PA, RKK(aK)(dP)-(PEG6 Spacer)-EEEEAAVV-C16 (SEQ ID NO: 5)] (I: Palmitoyl-VVAAEEEE[PEG6] / II: cyclo(KKKR[dP]); amide I:C-II:1) | marked increase in activation | no dose-dependent activation of TrkB | increase in activation of TrkB receptor in comparison with the control conditions | unable to activate the receptor to the same degree | completely blocked | marked increase in activation | –
BDNF protein: Human/Murine/Rat BDNF protein (Peprotech) (protein, UniProt P23560 19-247, looked up) Neurotrophic factor BDNF …: APMKEANIRGQGGLAYPGVRTHGTLESVNGPKAGSRGLTSLADTFEHVIEELLDEDQKVRPNEENNKDADLYTSRVMLSSQVPLEPPLLFLLEEYKNYLDAANMSMRVRRHSDPARRGELSVCDSISEWVTAADKKTAVDMSGGTVTVLEKVPVSKGQLKQYFYETKCNPMGYTKEGCRGIDKRHWNSQCRTTQSYVRALTMDSKKRIGWRFIRIDTSCVCTLTIKRGR | marked increase in activation | – | – | – | completely blocked | marked increase in activation | no longer showing p-TrkB after 12 h
